In patent US11446283B2, “Methods and dosing regimens using ibudilast and a second agent for cancer therapy” (MediciNova, Inc., priority 2018, dated 2022):

Tests used:
[1] = in vivo; cited from earlier work
[2] = tested on: Patient-derived cell line RN1 (MGMT unmethylated GBM); experiment: Efficacy in balb/c nude mice harboring intracranial patient-derived glioblastoma (RN1), Kaplan-Meier survival; conditions: for survival rate: at 105 days, control 0%; for median survival time: gavage daily; for mice that survived longer than the longest surviving mouse in the control group: n=8
Experimental: Patient-derived cell line RN1 (2 μL) was intra-cranially injected into balb/c nude mice.
6-8 week old balb/c nude mice were used. All procedures, except autopsies, were carried out within a laminar flow cabinet. Tumors were induced following the procedure disclosed in Wakimoto H. et al. (2012) Neuro Oncol. 14(2): 132-44. Balb/c nude mice were weighed and held in groups of four. The mice received an analgesic 2 hours prior to primary human tumor cell implantation—the mice were injected subcutaneously with 5 mg/kg Rimadyl (Carprofen). The animals were anesthetized via continuous mask inhalation of isoflurane (2.5-3%, 1 L/min oxygen for induction and 1-2.5%, 0.2 L/min oxygen for maintenance). The depth of anesthesia was assessed by toe pinch reflex (leg withdrawal) before the procedure began (cf. monitoring sheet #1).
A 2 mm drill hole was made at the stereotactically in the right caudate putamen using the coordinates 1 mm anterior, 1.5 mm lateral, and 3.0 mm below the bregma. A micro-injector unit (holding a 2 μl Hamilton syringe with a 25-gauge needle) connected to the manipulating arm of the stereotactic device was used to inject a 2 μL solution containing 200,000 primary human tumor cells dorsoventrally (DV) at −3 from the skull surface, to deposit cells into the lateral portion of the striatum (right basal ganglia). All injections were made over a period of 10 minutes to ensure optimal parenchymal compliance. The micro-injector needle was retracted and the burr hole in the skull closed using bone-wax (Johnson & Johnson) in order to prevent extracranial tumor growth. Skin was closed using a tissue adhesive (Vetbond). Mice received sterile eye drops (Systane) throughout the procedure to avoid eye dryness.
Two dosages of ibudilast were administered to the balb/c nude mice: 5 mg/kg and 20 mg/kg (both in 100 uL total volume). The dosage of ibudilast was extrapolated from multiple animal studies on rats looking at the treatment of multiple sclerosis (MS) disease and models of central neuropathic pain (Ellis et al. 2014; Reagan-shaw et al. 2008).
10 mg/kg of temozolomide (TMZ) was administered to the balb/c nude mice through intraperitoneal injection.
Five treatment groups were used as follows: • 1. Ibudilast 5 mg/kg by gavage (n=8) • 2. Ibudilast: 20 mg/kg by gavage (n=8) • 3. Combination 1: Ibudilast (5 mg/kg)+TMZ (10 mg/kg) (n=8) • 4. Combination 2: Ibudilast (20 mg/kg)+TMZ (10 mg/kg) (n=8) • 5. Control saline containing polyoxyethylene hydrogenated castor oil 60; 100 μL) (n=8)
For all of the treatment groups (except the control group), ibudilast was administered by gavage (daily) for approximately 59 days (until the last control mouse died) and TMZ was administered via intraperitoneal injection (daily) for two weeks.
At approximately 43 days after tumor implantation, mice were treated with temozolomide (10 mg/kg) and/or ibudilast (5 mg/kg or 20 mg/kg). Ibudilast was administered in a solution of saline containing polyoxyethylene hydrogenated castor oil 60 using the gavage method (100 μl total volume) (Fujimoto et al., 1999 J Neuroimmunology 95:1-2, 35-42). Temozolomide was delivered by intraperitoneal injection (I.P.) in 0.1% dimethyl sulfoxide (DMSO, […] total volume).
At this particular time, animals were carefully monitored (twice daily) as neurological decline can occur rapidly. Typical signs of neurological decline include a hunched posture with an arched back, continuous circling, walking on tip-toes, balance issues, closed eyes, hyperactivity, and seizures. Neurological decline was scored (cf. monitoring sheet #3) for each animal.
When signs of pain, distress or neurological decline were noted, animals were immediately euthanized by inhalation of a progressive overdose of carbon dioxide (cf. B.7). Animals were also immediately euthanized if they lost more than 20% of their body weight.

SMILES	CNS penetration [1]	effect in the mouse glioblastoma model ([2]; 5 and 20 mg/kg)	survival rate ([2]; ibudilast 5 mg/kg) [%]	survival rate ([2]; ibudilast 20 mg/kg) [%]	median survival time ([2]; ibudilast 5 mg/kg (low dose) monotherapy, control 100.5 days) [days]	mice that survived longer than the longest surviving mouse in the control group ([2]; ibudilast 5 mg/kg)	median survival time ([2]; ibudilast 20 mg/kg (high dose) monotherapy, control 100.5 days) [days]	mice that survived longer than the longest surviving mouse in the control group ([2]; ibudilast 20 mg/kg)	median survival compared with controls (significance) ([2]; monotherapy at either low dose (5 mg/kg) or high dose (20 mg/kg))	median survival ([2]; TMZ 10 mg/kg intraperitoneal daily for two weeks, control 100.5 days) [days]
COc1ccc(C2CNC(=O)C2)cc1OC1CCCC1 (centres unmarked) [rolipram]	poor penetration									
CC(C)C(=O)c1c(C(C)C)nn2ccccc12 [ibudilast, 3-isobutyryl-2-isopropylpyrazolo[1,5-a]pyridine]	good CNS penetration	positive effect	12	25	89	one mouse	97.5	two mice	did not significantly differ from the controls	
Cn1nnc2c(C(N)=O)ncn2c1=O [TMZ, temozolomide]										105.5
